Reference: patent US6355631B1, “Pharmaceutical compositions containing azetidine derivatives, novel azetidine derivatives and their preparation” (Aventis Pharma S.A., priority 2000, dated 2002)

Row | melting point [°C] | SMILES
1 | 171 | O=[SH](=O)N(Cc1ccccc1)CC1CN(C(c2ccc(Cl)cc2)c2ccc(Cl)cc2)C1 [Example 23, N-Benzyl-N-{1-[bis(4-chlorophenyl)methyl]azetidin-3-yl}methylsulfonamide]
2 | 98 | O=[SH](=O)N(Cc1cc(F)cc(F)c1)C1CN(C(c2ccc(F)cc2)c2ccc(F)cc2)C1 [Example 34, N-{1-[Bis(4-fluorophenyl)methyl]azetidin-3-yl}-N-(3,5-difluorophenyl)methylsulfonamide]
